“And” between values parts separate entries of the source, which are not always exact repeats. Equal values may be shown once. “Also recorded” adds a separate entry of the source. Read-outs that look alike come from different tables or passages of the source. Blank lines part the entries; values can stand above or below the compound they belong to.
What was measured:
[1] = human, in vivo
Text: (§1) Information regarding age, sex, daily dose and time between last dose and blood sampling was also collected from the database. For patients with multiple TDM measurements, only the last measurement was included. Included patients were divided into four subgroups based on age: (a) < 18, (b) 18–64, (c) 65–80, and (d) > 80 years.
(§2) Measured serum concentrations represent total concentrations, i.e. the sum of bound and unbound drug.
(§3) All patients were included unless they met the exclusion criteria. Exclusion criteria were: (a) serum concentration of citalopram, escitalopram and/or demethylcitalopram outside the limits of quantification (LOQ), (b) blood sampling not performed at trough levels, outside the time interval of 10–28 h after last dose intake, (c) prescribed dose of citalopram or escitalopram less/more than 2.5–80 mg or 2.5–60 mg, respectively, and (d) detection of interacting drugs in the citalopram/escitalopram serum sample. In detail, we screened the samples for CYP2C19 inducers carbamazepine, phenobarbital and phenytoin and the CYP2C19 or –2D6 inhibitors bupropion, fluoxetine, fluvoxamine, paroxetine or levomepromazine.
(§4) Differences in absolute serum concentrations of citalopram, escitalopram and metabolites as well as differences in time between last blood sampling and daily dose was investigated across the age subgroups using Kruskal Wallis test followed by Dunn's test. P-values were Bonferroni corrected by multiplying the P-value by the number of statistical analyses that were performed.

[2] = design: method as in earlier work; settings: cited from earlier work
[3] = tested on: human induced pluripotent stem cell-derived cardiomyocytes (hiPSC-CM); test: Action potential recordings in hiPSC-CM with voltage sensitive dye (FluoVolt, CellOPTIQ); format: cell-based; settings: for Triangulation effect: 10 times typical concentrations; for Electrical activity of the cells: highest concentrations (100 times typical); for Depolarisation (phase 0) measured by TRise: increasing concentrations; for Early and medium repolarisation (APD30 and APD50): intermediate concentrations; for Triangulation (APD90-APD30) effect: low concentrations; for Late repolarisation: lowest tested concentrations
Protocol: Cryopreserved human induced pluripotent stem cell-derived cardiomyocytes (hiPSC-CM): CDI iCell cardiomycytes^2 01434 CardioTox Kit (Catalog #: R1222, FujiFilm CDI, Madison, WI) were kept in liquid nitrogen until culture according to instructions by the manufacturer. […] All studies were conducted at Clyde Biosciences (Glasgow, Scotland). Cells were cultured in 96-well glass-bottomed plates (MatTek, Ashland, Massachusetts) coated with fibronectin ([…] in PBS supplemented with Ca2+ and Mg2+) (Sigma, St. Louis, Missouri) in a humidified incubator at 37 °C for 3 h. The cell density was 50,000 cells/cm2 (25,000 cells/well). The subsequent maintenance protocols followed manufacturer's instructions using their maintenance medial (FujiFilm CDI Cardiomyocytes Maintenance Media). Experiments were performed between days 4–8. Prior to beginning an experiment, cells were washed in serum-free media (SF media), specifically DMEM (Gibco, ThermoFisher Scientific, UK) supplemented with 10 mM galactose and 10 mM sodium pyruvate.
hiPSC-CM were loaded with 5 μM FluoVolt (ThermoFisher) and the multiwell plate was placed in the CellOPTIQ platform (at Clyde Biosciences Ltd, Glasgow, Scotland). The FluoVolt fluorescence signal was recorded using a 40 × (NA 0.6) objective lens. Excitation wavelength was 480 ± 10 nm, and emitted light was collected by a photomultiplier (PMT) at 510–560 nm. Drugs were supplied by Santa Cruz Biotechnology (Germany) and Toronto Research Chemicals (Canada). Their identity and concentration were blinded from the laboratory personnel. […] 30 min after exposure to the tested drug or vehicle a 20 s recording was taken. Offline analysis was performed using proprietary software (CellOPTIQ®). The following (averaged) parameters were obtained from the AP recordings of 4 independent replicates: cycle length (CL, […]); rise time (Trise, ms) between 10 and 90% of the AP amplitude, and AP durations (APD, ms) from 10% to 90% repolarization at 10% intervals. In this study rate-correction was based on previous studies.[14]
Drugs were tested at 3 concentrations with matched vehicle controls for each concentration. The chosen escitalopram (S-citalopram) concentration was 60 nM. Assuming no protein binding in the in vitro model, this corresponds to a total serum concentration of 136 nM, as escitalopram protein binding is reported at 55–56% (most commonly 56%, which is used in the present study).[15], [16], [17] […] This could vary with age and clinical conditions.[20] […] In a large therapeutic drug monitoring (TDM) study 60 nM was the average total concentration in patients with normal escitalopram metabolism through CYP2C19, and 136 nM was below the average total concentration in poor metabolizers.[7] After administration of racemic citalopram, R-citalopram is reported to be 3 times higher than S-citalopram in a publication by Ji et al.[22] The typical concentration of R-citalopram as well as the S-/R-demethylcitalopram and S-/R-didemethylcitalopram metabolites, were calculated according to ratios from their paper.[22]
Shapiro Wilk tests were used to determine whether the data in this study were normally distributed based on a least-squares fit to a normal function, while Brown–Forsythe test was used to verify homogeneity of variance (Origin version 9, OriginLab Corp., Northampton, Massachusetts). […] Statistical tests were made using a paired t-tests for differences between absolute values, with P-values adjusted for multiple comparisons using the Benjamini-Hochberg procedure (one-way ANOVA). The relationship between AP duration at 90% of repolarization (APD90) and CL or diastolic interval was fit to single or double exponential functions (Origin version 9).

[4] = cited from earlier work
[5] = cited from earlier work; remark: listed apart in the source
[6] = Therapeutic drug monitoring (TDM) serum concentrations in patients; settings: for Serum concentration, 10% percentile / Serum concentration, 25% percentile / Serum concentration, 50% percentile / Serum concentration, 75% percentile / Serum concentration, 90% percentile / Serum concentration, maximum / Serum concentration, minimum: trough; for Serum concentration, mean: trough (10-28 h after dose)
Text: as §1, §2, §3, §4

plasma protein = tested on: plasma protein; design: method as in PMID 17375980; settings: listed as escitalopram; cited from earlier work
[7] = design: method as in PMID 19841156; settings: cited from earlier work
[8] = hiPSC-CM, 10x clinical concentration
[9] = hiPSC-CM, 100x clinical concentration
[10] = hiPSC-CM, all tested concentrations
[11] = hiPSC-CM, clinical concentration

SMILES: N#Cc1ccc2c(c1)COC2(CCCN)c1ccc(F)cc1 (stereo not drawn) [Didemethylcitalopram, didemethylcitalopram]
Serum concentration, 10% percentile [1]: 0.82 nM
Serum concentration, 25% percentile [1]: 1.72 nM
Serum concentration, 50% percentile [1]: 3.47 nM
Serum concentration, 75% percentile [1]: 5.90 nM
Serum concentration, 90% percentile [1]: 9.65 nM
Serum concentration, maximum [1]: 35.33 nM
Serum concentration, minimum [1]: 0.34 nM
Serum concentrations associated with sudden death in dogs, relative to humans [2]: 39–155 times

Concentration dependence of triangulation ([3]; hiPSC-CM): dose-dependent increase
% Change of cycle length from baseline [3, 8]: -3.81±3.22 %
% Change of cycle length from baseline [3, 9]: -7.22±2.14 %
Concentration that increased late repolarisation (APD90) ([3]; hiPSC-CM, 30 min exposure): 1500 nM
Concentration that increased triangulation (APD90-APD30) of the action potential ([3]; hiPSC-CM, 30 min exposure): 150 nM
Concentration that reduced early repolarisation (APD30) ([3]; hiPSC-CM, 30 min exposure): 1500 nM
Effect on cycle length [3, 10]: limited shortening
% Change of cycle length from baseline [3, 11]: -4.33±3.45 %
SMILES: CNCCC[C@@]1(c2ccc(F)cc2)OCc2cc(C#N)ccc21 [S-demethylcitalopram]

Serum concentration, 10% percentile ([6]; citalopram users): 48 nM
Serum concentration, 25% percentile ([6]; citalopram users): 84 nM
Serum concentration, 50% percentile ([6]; citalopram users): 133 nM
Serum concentration, 75% percentile ([6]; citalopram users): 211 nM
Serum concentration, 90% percentile ([6]; citalopram users): 314 nM
Serum concentration, maximum ([6]; citalopram users): 733 nM
Serum concentration, minimum ([6]; citalopram users): 7 nM
Serum concentration, mean ([6]; citalopram users): 163 nM
SMILES: CN(C)CCCC1(c2ccc(F)cc2)OCc2cc(C#N)ccc21 (stereo not drawn) [Citalopram, citalopram]
Time of maximum concentration after intake (Tmax) [4]: 3 to 4 h
Relative risk for hospitalization due to ventricular arrhythmia ([5]; older patients (mean age 76), Canadian study): 1.53

% Change of cycle length from baseline [3, 8]: 9.89±8.49%
% Change of cycle length from baseline [3, 9]: 0.09±7.78%
Concentration that increased early repolarisation (APD30) ([3]; hiPSC-CM, 30 min exposure): 15 nM
Concentration that increased late repolarisation (APD90) ([3]; hiPSC-CM, 30 min exposure): 15 nM
Concentration that increased medium repolarisation (APD50) ([3]; hiPSC-CM, 30 min exposure): 15 nM
Concentrations with significant effect on triangulation (APD90-APD30) [3, 10]: No tested concentrations
Effect on cycle length [3, 10]: not affected
Effects on medium to late repolarisation ([3]; hiPSC-CM, at concentrations higher than 15 nM): not present
% Change of cycle length from baseline [3, 11]: 1.42±3.67%
SMILES: N#Cc1ccc2c(c1)CO[C@@]2(CCCN)c1ccc(F)cc1 [S-didemethylcitalopram]
Cardiotoxic at therapeutic concentrations ([3]; hiPSC-CM): did not find indications

Serum concentration, 10% percentile ([6]; citalopram users): 23 nM
Serum concentration, 25% percentile ([6]; citalopram users): 35 nM
Serum concentration, 50% percentile ([6]; citalopram users): 55 nM
Serum concentration, 75% percentile ([6]; citalopram users): 87 nM
Serum concentration, 90% percentile ([6]; citalopram users): 130 nM
Serum concentration, maximum ([6]; citalopram users): 395 nM
Serum concentration, minimum ([6]; citalopram users): 5 nM
Serum concentration, mean ([6]; citalopram users): 68 nM
Serum concentration, 10% percentile ([6]; escitalopram users): 13 nM
Serum concentration, 25% percentile ([6]; escitalopram users): 18 nM
Serum concentration, 50% percentile ([6]; escitalopram users): 26 nM
Serum concentration, 75% percentile ([6]; escitalopram users): 37 nM
Serum concentration, 90% percentile ([6]; escitalopram users): 51 nM
Serum concentration, maximum ([6]; escitalopram users): 329 nM
Serum concentration, minimum ([6]; escitalopram users): 5 nM
Serum concentration, mean ([6]; escitalopram users): 30 nM
SMILES: CNCCCC1(c2ccc(F)cc2)OCc2cc(C#N)ccc21 (stereo not drawn) [Demethylcitalopram, demethylcitalopram]

% Change of cycle length from baseline [3, 8]: -1.09±3.49%
% Change of cycle length from baseline [3, 9]: -1.67±2.65%
Concentration that increased early repolarisation (APD30) ([3]; hiPSC-CM, 30 min exposure): 60 nM
Concentration that reduced triangulation (APD90-APD30) ([3]; hiPSC-CM, 30 min exposure): 6 nM
Effect on cycle length [3, 10]: not affected
% Change of cycle length from baseline [3, 11]: -1.40±5.04%
SMILES: N#Cc1ccc2c(c1)CO[C@]2(CCCN)c1ccc(F)cc1 [R-didemethylcitalopram]
Cardiotoxic at therapeutic concentrations ([3]; hiPSC-CM): did not find indications

Triangulation effect ([3]; hiPSC-CM): substantial increase
% Change of cycle length from baseline [3, 8]: -1.96±5.39%
% Change of cycle length from baseline [3, 9]: Quiescent
Concentration that increased triangulation (APD90-APD30) of the action potential ([3]; hiPSC-CM, 30 min exposure): 180 nM
Concentration that reduced medium repolarisation (APD50) ([3]; hiPSC-CM, 30 min exposure): 1800 nM
Effect on cycle length [3, 10]: not affected
% Change of cycle length from baseline [3, 11]: 0.99±7.43%
Electrical activity of the cells ([3]; hiPSC-CM): electrically quiescent
Early and medium repolarisation (APD30 and APD50) ([3]; hiPSC-CM): shortening
Triangulation (APD90-APD30) effect ([3]; hiPSC-CM): significantly increased
Late repolarisation ([3]; hiPSC-CM): prolonged
SMILES: CN(C)CCC[C@]1(c2ccc(F)cc2)OCc2cc(C#N)ccc21 [R-citalopram]
Depolarisation (phase 0) measured by TRise ([3]; hiPSC-CM): No changes; also recorded: No significant increase
Concentration relative to S-citalopram after administration of racemic citalopram [4]: 3 times

Triangulation effect ([3]; hiPSC-CM): substantial increase
% Change of cycle length from baseline [3, 8]: -2.06±5.36%
% Change of cycle length from baseline [3, 9]: Quiescent
Concentration that increased late repolarisation (APD90) ([3]; hiPSC-CM, 30 min exposure): 60 nM
Concentration that increased triangulation (APD90-APD30) of the action potential ([3]; hiPSC-CM, 30 min exposure): 60 nM
Effect on cycle length [3, 10]: not affected
% Change of cycle length from baseline [3, 11]: 2.14±4.47%
Electrical activity of the cells ([3]; hiPSC-CM): electrically quiescent
Early and medium repolarisation (APD30 and APD50) ([3]; hiPSC-CM): shortening
Triangulation (APD90-APD30) effect ([3]; hiPSC-CM): significantly increased
Increase in APD90 ([3]; hiPSC-CM, lowest S-citalopram concentration (60 nM)): 21.9 ms
Late repolarisation ([3]; hiPSC-CM): prolonged
% of serum concentrations above 136 nM [1]: 5.4-15.9%
Serum concentration, 10% percentile ([6]; escitalopram users): 21 nM
Serum concentration, 25% percentile ([6]; escitalopram users): 33 nM
Serum concentration, 50% percentile ([6]; escitalopram users): 52 nM
Serum concentration, 75% percentile ([6]; escitalopram users): 84 nM
Serum concentration, 90% percentile ([6]; escitalopram users): 126 nM
Serum concentration, maximum ([6]; escitalopram users): 730 nM
Serum concentration, minimum ([6]; escitalopram users): 7 nM
Serum concentration, mean ([6]; escitalopram users): 66 nM
SMILES: CN(C)CCC[C@@]1(c2ccc(F)cc2)OCc2cc(C#N)ccc21 [S-citalopram]
Calculated total serum concentration corresponding to a free concentration of 60 nM (potential pro-arrhythmic activity) ([3]; assuming 56% plasma protein binding): 136 nM
Depolarisation (phase 0) measured by TRise ([3]; hiPSC-CM): No changes; also recorded: No significant increase
QTc-prolongation corresponding to the APD90 increase ([3]; lowest S-citalopram concentration, translation per ref 33): 6.2 ms
Plasma protein binding (plasma protein): 55–56% and 56%
Serum concentrations per dose, patients >65 years versus adults <40 years [4]: 1.4 times
Average total concentration in CYP2C19 poor metabolizers ([4]; large TDM study): > 136 nM
Average total concentration in patients with normal escitalopram metabolism through CYP2C19 ([4]; large TDM study): 60 nM
Time of maximum concentration after intake (Tmax) ([4]; listed as escitalopram): 3 to 4 h and 3.0 ± 1.5 h
FDA-reported QTc-prolongation ([5]; after intake of 20 mg): 6.6 ms
Clearance, typical value (CLTV) ([7]; CYP2C19 normal/rapid metabolizer): 26.0 L/h
Clearance, typical value (CLTV) ([7]; CYP2C19 poor/intermediate metabolizer): 19.8 L/h
Absorption rate constant, typical value (KaTV) ([7]; population PK model): 0.8 h⁻¹
Volume of distribution, typical value (VTV) ([7]; population PK model): 947 L

Concentration dependence of triangulation ([3]; hiPSC-CM): dose-dependent increase
Effect on late repolarisation (APD90) ([3]; hiPSC-CM, 2000 nM): not late repolarisation
% Change of cycle length from baseline [3, 8]: -9.34±2.21 %
% Change of cycle length from baseline [3, 9]: -8.55±6.93 %
Concentration that increased triangulation (APD90-APD30) of the action potential ([3]; hiPSC-CM, 30 min exposure): 2000 nM
Concentration that reduced early repolarisation (APD30) ([3]; hiPSC-CM, 30 min exposure): 2000 nM
Effect on cycle length [3, 10]: limited shortening
% Change of cycle length from baseline [3, 11]: -6.45±4.32 %
SMILES: CNCCC[C@]1(c2ccc(F)cc2)OCc2cc(C#N)ccc21 [R-demethylcitalopram]

— paper PMC10474154, “Pro-arrhythmic effect of escitalopram and citalopram at serum concentrations commonly observed in older patients – a study based on a cohort of 19,742 patients” (eBioMedicine, 2023)
